Data taken from ChEMBL document CHEMBL1201862, “PubChem BioAssay data set” (2004).
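1) Cells in 96-well plates. 2) Compound, 48 h, 5 concentrations. 3) Linear interpolation between surrounding doses. 4) Unreached endpoint = highest concentration. GI50 = concentration required for 50% inhibition of growth.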 Calls of active or inactive are those of the source. Rule as the data show it: active = GI50 up to about 1.1 µM and inactive = higher.

Key:
Assay in all cases: NCI-60 cell line screen, 48 h
SK-MEL-2 = tested on: SK-MEL-2
SF-268 = tested on: SF-268
NCI-H226 = tested on: NCI-H226
NCI-H23 = tested on: NCI-H23
HOP-18 = tested on: HOP-18
OVCAR-5 = tested on: OVCAR-5
EKVX = tested on: EKVX
UACC-62 = tested on: UACC-62
K562 = tested on: K562
Malme-3M = tested on: Malme-3M
KM12 = tested on: KM12
SN12C = tested on: SN12C
OVCAR-8 = tested on: OVCAR-8
NCI-H460 = tested on: NCI-H460
M14 = tested on: M14
KM-20L2 = tested on: KM-20L2
HOP-62 = tested on: HOP-62
SNB-19 = tested on: SNB-19
HCT-15 = tested on: HCT-15
LOX IMVI = tested on: LOX IMVI
SNB-75 = tested on: SNB-75
DLD-1 = tested on: DLD-1
M19-MEL = tested on: M19-MEL
LXFL 529 = tested on: LXFL 529
SW-620 = tested on: SW-620
HCT-116 = tested on: HCT-116
SK-MEL-28 = tested on: SK-MEL-28
IGROV-1 = tested on: IGROV-1
RPMI-8226 = tested on: RPMI-8226
SK-OV-3 = tested on: SK-OV-3
OVCAR-4 = tested on: OVCAR-4
HT-29 = tested on: HT-29
OVCAR-3 = tested on: OVCAR-3
HL-60 = tested on: HL-60
MOLT-4 = tested on: MOLT-4
A549 = tested on: A549
RXF 393 = tested on: RXF 393
U-251 = tested on: U-251
TK-10 = tested on: TK-10
UACC-257 = tested on: UACC-257
COLO 205 = tested on: COLO 205
UO-31 = tested on: UO-31
A498 = tested on: A498
SNB-78 = tested on: SNB-78
ACHN = tested on: ACHN
CCRF-CEM = tested on: CCRF-CEM
786-0 = tested on: 786-0
HCC 2998 = tested on: HCC 2998
NCI-H522 = tested on: NCI-H522
SK-MEL-5 = tested on: SK-MEL-5
DMS-273 = tested on: DMS-273
SR = tested on: SR
SF-539 = tested on: SF-539
DMS-114 = tested on: DMS-114
SF-295 = tested on: SF-295
CAKI-1 = tested on: CAKI-1
HOP-92 = tested on: HOP-92

## COC(=O)/C(=N\Nc1nc(S)nn1N)C(C#N)c1ccccc1 (stereo not given)
SK-MEL-2
  GI50: > 100 µM (inactive)
SF-268
  GI50: > 100 µM (inactive)
NCI-H226
  GI50: > 100 µM (inactive)
NCI-H23
  GI50: > 100 µM (inactive)
HOP-18
  GI50: > 100 µM (inactive)
OVCAR-5
  GI50: > 100 µM (inactive)
EKVX
  GI50: > 100 µM (inactive)
UACC-62
  GI50: > 100 µM (inactive)
K562
  GI50: > 100 µM (inactive)
Malme-3M
  GI50: > 100 µM (inactive)
KM12
  GI50: > 100 µM (inactive)
SN12C
  GI50: > 100 µM (inactive)
OVCAR-8
  GI50: > 100 µM (inactive)
NCI-H460
  GI50: > 100 µM (inactive)
M14
  GI50: > 100 µM (inactive)
KM-20L2
  GI50: > 100 µM (inactive)
HOP-62
  GI50: > 100 µM (inactive)
SNB-19
  GI50: > 100 µM (inactive)
HCT-15
  GI50: > 100 µM
LOX IMVI
  GI50: > 100 µM (inactive)
SNB-75
  GI50: > 100 µM (inactive)
DLD-1
  GI50: > 100 µM (inactive)
M19-MEL
  GI50: > 100 µM (inactive)
LXFL 529
  GI50: > 100 µM (inactive)
SW-620
  GI50: > 100 µM (inactive)
HCT-116
  GI50: > 100 µM (inactive)
SK-MEL-28
  GI50: > 100 µM (inactive)
IGROV-1
  GI50: > 100 µM (inactive)
RPMI-8226
  GI50: > 100 µM (inactive)
SK-OV-3
  GI50: > 100 µM (inactive)
OVCAR-4
  GI50: > 100 µM (inactive)
HT-29
  GI50: > 100 µM (inactive)
OVCAR-3
  GI50: > 100 µM (inactive)
HL-60
  GI50: > 100 µM (inactive)
MOLT-4
  GI50: > 100 µM (inactive)
A549
  GI50: > 100 µM (inactive)
RXF 393
  GI50: > 100 µM (inactive)
U-251
  GI50: > 100 µM (inactive)
TK-10
  GI50: > 100 µM (inactive)
UACC-257
  GI50: > 100 µM (inactive)
COLO 205
  GI50: > 100 µM (inactive)
UO-31
  GI50: > 100 µM (inactive)
A498
  GI50: > 100 µM (inactive)
SNB-78
  GI50: > 100 µM (inactive)
ACHN
  GI50: > 100 µM (inactive)
CCRF-CEM
  GI50: > 100 µM (inactive)
786-0
  GI50: > 100 µM (inactive)
HCC 2998
  GI50: > 100 µM (inactive)
NCI-H522
  GI50: > 100 µM (inactive)
SK-MEL-5
  GI50: > 100 µM (inactive)

## Cc1ccc(F)c2c(=O)cc(-c3ccccc3)[nH]c12
DMS-273
  GI50: 94.6 µM (inactive)
SK-MEL-2
  GI50: > 100 µM (inactive)
SF-268
  GI50: > 100 µM (inactive)
NCI-H226
  GI50: 63 µM (inactive)
NCI-H23
  GI50: > 100 µM (inactive)
HOP-18
  GI50: > 100 µM (inactive)
OVCAR-5
  GI50: > 100 µM (inactive)
SR
  GI50: 50.5 µM (inactive)
UACC-62
  GI50: > 100 µM (inactive)
K562
  GI50: > 100 µM (inactive)
Malme-3M
  GI50: > 100 µM (inactive)
KM12
  GI50: 98.2 µM (inactive)
SF-539
  GI50: > 100 µM (inactive)
SN12C
  GI50: > 100 µM (inactive)
OVCAR-8
  GI50: > 100 µM (inactive)
NCI-H460
  GI50: > 100 µM (inactive)
M14
  GI50: > 100 µM (inactive)
DMS-114
  GI50: > 100 µM (inactive)
SF-295
  GI50: > 100 µM (inactive)
HOP-62
  GI50: > 100 µM (inactive)
HCT-15
  GI50: > 100 µM
LOX IMVI
  GI50: > 100 µM (inactive)
SNB-75
  GI50: 26 µM (inactive)
DLD-1
  GI50: > 100 µM (inactive)
M19-MEL
  GI50: > 100 µM (inactive)
LXFL 529
  GI50: > 100 µM (inactive)
SW-620
  GI50: > 100 µM (inactive)
HCT-116
  GI50: > 100 µM (inactive)
SK-MEL-28
  GI50: > 100 µM (inactive)
IGROV-1
  GI50: > 100 µM (inactive)
RPMI-8226
  GI50: > 100 µM (inactive)
SK-OV-3
  GI50: > 100 µM (inactive)
OVCAR-4
  GI50: > 100 µM (inactive)
HT-29
  GI50: > 100 µM (inactive)
HL-60
  GI50: > 100 µM (inactive)
MOLT-4
  GI50: > 100 µM (inactive)
A549
  GI50: > 100 µM (inactive)
RXF 393
  GI50: > 100 µM (inactive)
U-251
  GI50: > 100 µM (inactive)
TK-10
  GI50: > 100 µM (inactive)
UACC-257
  GI50: > 100 µM (inactive)
COLO 205
  GI50: > 100 µM (inactive)
UO-31
  GI50: 60.3 µM (inactive)
CAKI-1
  GI50: > 100 µM (inactive)
ACHN
  GI50: > 100 µM (inactive)
HOP-92
  GI50: > 100 µM (inactive)
CCRF-CEM
  GI50: > 100 µM (inactive)
786-0
  GI50: > 100 µM (inactive)
NCI-H522
  GI50: > 100 µM (inactive)
SK-MEL-5
  GI50: 87.5 µM (inactive)
